Experimental data reported in ChEMBL document CHEMBL1123023, “Syntheses and differentiating action of vitamin D endoperoxides. Singlet oxygen adducts of vitamin D derivatives in human myeloid leukemia cells (HL-60)” (1985).

Experiments:
HL-60 = test: Evaluated for its ability to induce phagocytosis in human myeloid leukemia cells (HL-60); format: functional; set-up: unit not given here
[1] = biological target: T1, Vitamin D3 receptor (Homo sapiens) (UniProt P11473)
T1 sequence (whole entry): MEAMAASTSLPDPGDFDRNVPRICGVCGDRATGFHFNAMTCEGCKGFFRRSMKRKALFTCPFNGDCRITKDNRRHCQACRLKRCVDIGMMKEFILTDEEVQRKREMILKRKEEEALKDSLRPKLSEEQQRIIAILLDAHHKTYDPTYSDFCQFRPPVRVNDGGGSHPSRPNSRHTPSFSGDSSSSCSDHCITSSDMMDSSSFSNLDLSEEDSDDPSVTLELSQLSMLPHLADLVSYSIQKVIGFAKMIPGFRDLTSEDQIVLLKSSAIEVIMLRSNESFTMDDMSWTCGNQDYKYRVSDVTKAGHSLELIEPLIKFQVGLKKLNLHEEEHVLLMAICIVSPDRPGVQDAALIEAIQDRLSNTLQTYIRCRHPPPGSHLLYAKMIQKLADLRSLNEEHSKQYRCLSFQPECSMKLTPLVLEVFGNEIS
Description: Evaluated for its binding affinity towards cytosol receptor in human myeloid leukemia cells (HL-60), by using 1-alpha,25-(OH)2D3 as radioligand

| Compound | Phagocytosis (HL-60) | Binding activity [1] |
| --- | --- | --- |
| C[C@H](CCCC(C)(C)O)[C@H]1CC[C@H]2/C(=C/[C@@H]3OOCC4=C3C[C@@H](O)CC4)CCC[C@]12C | 130 | 3000 |
| C[C@H](CCCC(C)(C)O)[C@H]1CC[C@H]2/C(=C/[C@@H]3OOCC4=C3C[C@@H](O)C[C@@H]4O)CCC[C@]12C | 200 | 800 |
| C[C@H](CCC(F)(F)C(C)(C)O)[C@H]1CC[C@H]2/C(=C/[C@@H]3OOCC4=C3C[C@@H](O)CC4)CCC[C@]12C.C[C@H](CCC(F)(F)C(C)(C)O)[C@H]1CC[C@H]2/C(=C/[C@H]3OOCC4=C3C[C@@H](O)CC4)CCC[C@]12C | 45 | 1000 |
| CC(C)[C@H](O)CC[C@@H](C)[C@H]1CC[C@H]2/C(=C/[C@H]3OOCC4=C3C[C@@H](O)C[C@@H]4O)CCC[C@]12C | 150 | 800 |
| C=C1CC[C@H](O)C/C1=C/C=C1\CCC[C@]2(C)[C@@H]([C@H](C)CCC(F)(F)C(C)(C)O)CC[C@@H]12 | 200 | 1000 |
| CC(C)CCC[C@@H](C)[C@H]1CC[C@H]2/C(=C/[C@@H]3OOCC4=C3C[C@@H](O)C[C@@H]4O)CCC[C@]12C | >1000 | > 10000 |
| C=C1CC[C@H](O)C/C1=C/C=C1\CCC[C@]2(C)[C@@H]([C@H](C)CCCC(C)(C)O)CC[C@@H]12 [CALCIFEDIOL ANHYDROUS] | 320 | 600 |
| C=C1/C(=C\C=C2/CCC[C@]3(C)[C@@H]([C@H](C)CCCC(C)(C)O)CC[C@@H]23)C[C@@H](O)C[C@@H]1O [CALCITRIOL] | 1 | – |
| CC(C)[C@H](O)CC[C@@H](C)[C@H]1CC[C@H]2/C(=C/[C@@H]3OOCC4=C3C[C@@H](O)C[C@@H]4O)CCC[C@]12C | 200 | 800 |
| C=C1/C(=C\C=C2/CCC[C@]3(C)[C@@H]([C@H](C)CC[C@@H](O)C(C)C)CC[C@@H]23)C[C@@H](O)C[C@@H]1O [TACALCITOL] | 1 | 1 |
| CC(C)CCC[C@@H](C)[C@H]1CC[C@H]2/C(=C/[C@H]3OOCC4=C3C[C@@H](O)C[C@@H]4O)CCC[C@]12C | >1000 | > 10000 |
| C=C1/C(=C\C=C2/CCC[C@]3(C)[C@@H]([C@H](C)CCCC(C)C)CC[C@@H]23)C[C@@H](O)C[C@@H]1O [ALFACALCIDOL] | 320 | 800 |
| C[C@H](CCCC(C)(C)O)[C@H]1CC[C@H]2/C(=C/[C@H]3OOCC4=C3C[C@@H](O)C[C@@H]4O)CCC[C@]12C | 130 | 800 |
| C[C@H](CCCC(C)(C)O)[C@H]1CC[C@H]2/C(=C/[C@H]3OOCC4=C3C[C@@H](O)CC4)CCC[C@]12C | 120 | 3000 |
| C[C@H](CCCC(O)(C(F)(F)F)C(F)(F)F)[C@H]1CC[C@H]2/C(=C/[C@@H]3OOCC4=C3C[C@@H](O)CC4)CCC[C@]12C.C[C@H](CCCC(O)(C(F)(F)F)C(F)(F)F)[C@H]1CC[C@H]2/C(=C/[C@H]3OOCC4=C3C[C@@H](O)CC4)CCC[C@]12C | 30 | 1500 |
| C=C1CC[C@H](O)C/C1=C/C=C1\CCC[C@]2(C)[C@@H]([C@H](C)CCCC(O)(C(F)(F)F)C(F)(F)F)CC[C@@H]12 | 200 | 50 |
